Reference: patent US7345192B2, “Reduction of hair growth” (The Gillette Company, priority 2005, dated 2008)
Read-outs that look alike come from different tables or passages of the source. Blank lines part the entries; values can stand above or below the compound they belong to.

What was measured:
[1] = Description: The penetration studies were carried out using Franz chambers. Hamster skin (non-flank organ region) was clipped and appropriate size pieces then cut and mounted between the lower and upper Franz cell chambers. The lower and upper chambers (with the skin in between) were then securely clamped together. A small magnetic stir bar was placed in the bottom of each chamber, 80 μL of 100× sodium azide to a final concentration of 0.2% was added as an anti-microbial agent, then the lower chamber was filled with phosphate buffered saline (PBS). PBS is added until the level in the side arm is just level with the mounted skin, slightly inverting the cells as necessary to remove any air bubbles that might occur. The Franz chambers are then placed in the appropriate size heating blocks and allowed to stand overnight at room temperature. […] Similarly, 20-40 μL of a 1% test formulation was applied over 8-10 chambers. Four hundred μL of the receptor fluid from the lower chamber was removed at 2, 4, 6, 8, 24 and 50 hours and placed in a scintillation vial. This PBS was then replaced with 400 μL of fresh PBS.
[2] = In vitro drug skin accumulation assay (tape-stripped skin after 50-hour diffusion); format: in vitro ADME, Hamster; conditions: for % Skin Deposition: skin after tape stripping of stratum corneum
Description: The penetration studies were carried out using Franz chambers.
After the 50-hour receiver fluid sample was taken, the diffusion set-up was dismantled. The skin section was mounted on a board and the stratum corneum skin layer was removed by tape stripping (3M Magic Tape 810). The section of the remaining skin exposed to the receiver fluid was isolated, placed in a vial containing 1 ml of Beckman Tissue Solubilizer-450, shaken for 4 days, and the resulting solution was assayed for the radiolabeled drug.

[3] = Ionization constants by potentiometric titration; format: physicochemical
Description: Although Schiff base formation is possible at both amino groups, sufficient selectivity can be achieved under buffered conditions or by terminating the reaction at an appropriate time. […] Three constants were obtained: pK1=0.084, pK2=6.437, pK3=10.393. Mono-conjugated Schiff base was prepared by reaction with a selected aldehyde or ketone under controlled buffer conditions.

Ionization constant pK1 [3]: 0.084
Ionization constant pK2 [3]: 6.437
Ionization constant pK3 [3]: 10.393
SMILES: NCCC[C@](N)(C(=O)O)C(F)F [DFMO, α-Difluoromethylornithine]

Skin penetration, % of applied dose after 24 hr ([1]; hamster, 24 h, 1 % formulation): 3.31 ± 0.98 % of applied dose
SMILES: CC(C)c1ccc(C=NCCCC(N)(C(=O)O)C(F)F)cc1 (centres unmarked) [IPB-DFMO, 2-amino-2-difluoromethyl-5-[(4-isopropyl-benzylidene)-amino]-pentanoic acid]

Skin penetration, % of applied dose after 24 hr ([1]; hamster, 24 h, 1 % formulation): 6.68 ± 1.68 % of applied dose
SMILES: Cc1cc(C)c(C=NCCCC(N)(C(=O)O)C(F)F)c(C)c1 (centres unmarked) [M-DFMO, 2-amino-2-difluoromethyl-5-[(2,4,6-trimethyl-benzylidene)-amino]-pentanoic acid]

Skin penetration, % of applied dose after 24 hr ([1]; hamster, 24 h, 1 % formulation): 3.34 ± 1.97 % of applied dose
Relative Deposition (fold increase over unconjugated DFMO) [2]: 1.2 fold
% Skin Deposition [2]: 0.96 ± 0.6%
SMILES: COc1cc(C=NCCCC(N)(C(=O)O)C(F)F)ccc1O (centres unmarked) [V-DFMO, 2-amino-2-difluoromethyl-5-[(4-hydroxy-3-methoxy-benzylidene)-amino]-pentanoic acid]

The remaining lines, values behind:

SMILES: NC(CCCN=Cc1ccccc1)(C(=O)O)C(F)F (centres unmarked) [B-DFMO, 2-amino-5-(benzylidene-amino)-2-difluoromethyl-pentanoic acid]
Initial Rate of Penetration ([1]; hamster, 2 h, 1 % formulation): 1.24 ± 1.16
Initial Rate of Penetration ([1]; hamster, 4 h, 1 % formulation): 1.65 ± 1.48
Initial Rate of Penetration ([1]; hamster, 6 h, 1 % formulation): 1.71 ± 1.50
Level of radiolabeled drug in the receptor fluid ([1]; hamster, 24 h, 1 % formulation): 10±1 % of the applied dose
Skin penetration, % of applied dose after 24 hr ([1]; hamster, 24 h, 1 % formulation): 9.63 ± 1.31 % of applied dose
Level of radiolabeled drug in the receptor fluid ([1]; hamster, 50 h, 1 % formulation): 16±3 % of the applied dose
Relative Deposition (fold increase over unconjugated DFMO) [2]: 7.4 fold
% Skin Deposition [2]: 5.92 ± 4.0%

SMILES: COC(=O)C(N)(CCCN)C(F)F (centres unmarked) [DFMO-OMe, 2,5-diamino-2-difluoromethyl-pentanoic acid methyl ester]
Rate of Penetration ([1]; hamster, 4 h, 1 % formulation): 0.23 ± 0.18
Rate of Penetration ([1]; hamster, 6 h, 1 % formulation): 0.21 ± 0.16
Rate of Penetration ([1]; hamster, 24 h, 1 % formulation): 0.2 ± 0.13

SMILES: CC(C=NCCCC(N)(C(=O)O)C(F)F)=Cc1ccccc1 (centres unmarked) [MCA-DFMO, 2-amino-2-difluoromethyl-5-(2-methyl-3-phenyl-allylideneamino)-pentanoic acid]
Skin penetration, % of applied dose after 24 hr ([1]; hamster, 24 h, 1 % formulation): 3.28 ± 0.88 % of applied dose
Relative Deposition (fold increase over unconjugated DFMO) [2]: 5.0 fold
% Skin Deposition [2]: 4.00 ± 3.0%

SMILES: NC(CCCN=Cc1ccc2ccccc2c1)(C(=O)O)C(F)F (centres unmarked) [N-DFMO, 2-amino-2-difluoromethyl-5-[([…]aphthalene-2-ylmethylene)-amino]-pentanoic acid]
Skin penetration, % of applied dose after 24 hr [1]: 3.91 ± 0.71 % of applied dose
